Among the data in PubChem BioAssay AID1421 (Emory University Molecular Libraries Screening Center, 2008) are PGE2 EC50 with compound and outcome values, retold here.

Where “and” joins values, the source holds several entries; their conditions need not be identical. Identical values can stand only once. Calls of active or inactive are those of the source. No rule for the calls is given here.

This assay deals with Prostaglandin E2 receptor EP2 subtype (Homo sapiens) (UniProt P43116). Description: EP2 receptor modulators, dose response, cell-based, human EP2, PGE2 EC50 shift (AID 1421). As to conditions: EP2-expressing cells, PGE2 EC50 shift by compound; for PGE2 EC50 with compound: measured here: PGE2 EC50 at 6.7 uM compound.
Chain of Prostaglandin E2 receptor EP2 subtype (Homo sapiens) (P43116 whole entry, looked up): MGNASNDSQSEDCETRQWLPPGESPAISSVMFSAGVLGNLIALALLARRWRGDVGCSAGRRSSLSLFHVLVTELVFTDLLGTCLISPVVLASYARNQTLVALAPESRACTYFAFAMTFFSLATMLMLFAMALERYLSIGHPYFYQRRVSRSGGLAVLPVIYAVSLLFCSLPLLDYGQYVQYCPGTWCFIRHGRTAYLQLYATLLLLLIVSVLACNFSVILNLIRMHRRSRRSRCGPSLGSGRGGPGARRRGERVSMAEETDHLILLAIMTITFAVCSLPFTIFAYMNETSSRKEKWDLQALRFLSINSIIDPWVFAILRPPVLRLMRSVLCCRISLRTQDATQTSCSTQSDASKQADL

As for `COc1ccc(S(=O)(=O)N(Cc2cccs2)C2CCCC2)cc1`, the PGE2 EC50 with compound came to 1.26 nM. Still for that read-out and setting: the same measure for `CCCC1=C(C(=O)OCC)C(c2cccs2)C(C#N)=C(N)O1` (stereo not given): 0.82 nM; for `Cc1cc(C)cc(OC2CCCCC2NS(=O)(=O)c2ccccc2)c1` (stereo not given): 1.62 nM.

On to `CCCCOc1c(Br)cc(/C=N/O)cc1OCC`, for which the PGE2 EC50 with compound was determined as 0.93 nM. Regarding `C=CCSc1nccc(-c2cc(Cl)sc2Cl)n1`, the PGE2 EC50 with compound stood at 1.07 nM.

Turning to `O=C(c1ccc(Cl)cc1)c1oc2ccccc2c1CS(=O)c1ccc(Cl)cc1` (stereo not given), the PGE2 EC50 with compound turned out to be 0.88 nM. Turning to `Nc1ccc(SC(F)(F)F)cc1C(=O)c1ccccc1`, the PGE2 EC50 with compound is 2.39 nM.

Turning to `O=C(O)COc1ccc2occ(C(=O)c3ccccc3)c2c1`, the PGE2 EC50 with compound came out at 0.86 nM.

For the compound `Cc1cc(SCC(=O)c2ccccc2)nc2ccccc12`, the PGE2 EC50 with compound was found to be 1.09 nM. Turning to `C(=N/n1c2ccccc2c2ccccc21)/c1ccco1`, the result was active and the PGE2 EC50 with compound stood at 1.08 nM. `Cc1ccc(N(Cc2ccccc2)Cc2ccccc2)cc1`: the PGE2 EC50 with compound turned out to be 1.7 nM. The same measure, in the same setting: the same measure for `CC1=CC(C)(C)N(S(=O)(=O)c2ccc(C)cc2)c2cc(C)ccc21`: 1.17 nM; for `O=C(c1ccccc1)C1CN(Cc2ccccc2)CCC1(O)c1ccccc1` (stereo not given): 2.61 nM. As to `COC(=O)c1c(NC(=O)c2cccs2)sc2c1CCC(C)C2` (stereo not given), the PGE2 EC50 with compound stood at 0.96 nM. Regarding `CCC1COC(c2cccn2Cc2ccc(Cl)cc2)=N1` (stereo not given), the outcome was active and the PGE2 EC50 with compound amounted to 1.27 nM. Turning to `CCOC(=O)C1=C(CN2CCc3ccccc32)NC(=O)NC1c1ccc(Cl)cc1` (stereo not given), the outcome was active and the PGE2 EC50 with compound stood at 1.21 nM. For the compound `CCC(Sc1nc(-c2ccccc2)c(C#N)c(=O)[nH]1)C(=O)Nc1cc(C)on1` (stereo not given), the PGE2 EC50 with compound was determined as 1.38 nM. Same read-out and setting: the same measure for `CCCC(=O)O[C@H]1C[C@@H](C)N(C(=O)c2ccccc2)c2ccc(C)cc21`: 0.88 nM; for `CCOC(=O)C(C)Sc1ncc(OC)c(Sc2ccc(Cl)cc2)n1` (stereo not given): 0.67 nM. Same read-out and setting: the same measure for `CCOC(=O)c1c(NC(=O)CSC(=S)N(C)C)sc(C)c1C`: 0.86 nM.

For `Cn1cccc1/C=C1\CC(C(C)(C)C)C/C(=C\c2cccn2C)C1=O` (stereo not given), the outcome was active and the PGE2 EC50 with compound is 1.44 nM. Turning to `Cc1ccc2[nH]c3c(=S)nc[nH]c3c2c1`, the PGE2 EC50 with compound is 2.83 nM. On the same count and under the same terms, the same measure for `CCOP(=O)(OCC)c1nc(-c2cccc3ccccc23)oc1NCc1ccccc1`: 2.48 nM; for `Cc1ccc(-c2cc3ccccc3nc2N2CCOCC2)cc1`: 1.45 nM. Take `COc1ccc(C(=O)O)cc1NC(=S)NC(=O)c1ccc(-c2ccc(Cl)cc2)o1`: the PGE2 EC50 with compound amounted to 0.36 nM.

Take `O=C(Nc1ccccc1)/C(=C/c1ccccc1)c1ccccc1`: the PGE2 EC50 with compound came to 2.56 nM.

As to `CCN(CC)c1ccc(/C=C2\C(=O)c3ccc(C(=O)O)cc3C2=O)cc1`, the PGE2 EC50 with compound came to 1.04 nM. `Cc1ccc(Cl)cc1NC1=NC(=S)N(C(C)C)C12CCCCC2`: the PGE2 EC50 with compound came out at 0.77 nM. Still for that read-out and setting: the same measure for `Cc1ccc(-n2c(SCC(=O)Nc3ccc4c(c3)OCO4)nnc2-c2ccoc2C)cc1`: 1.18 nM; for `CC(=O)Oc1ccc2ccccc2c1C(NC(=O)Cc1ccccc1)c1ccccc1` (stereo not given): 1.1 nM. On to `Cc1ccccc1N=C1SCC(=O)N1Cc1ccccc1`, for which the PGE2 EC50 with compound was 1.2 nM. `CCOc1ccc(C(C)=O)cc1CC(C(N)=O)C(N)=O`: the PGE2 EC50 with compound worked out at 1.11 nM. Same read-out and setting: the same measure for `Cc1ccc(S(=O)(=O)NCC(=O)N(c2ccccc2)C(C(=O)NCc2ccccc2)c2ccco2)cc1` (stereo not given): 1 nM; for `COC(=O)c1ccc(Oc2cc(C)nc(NCc3ccccc3)n2)cc1`: 0.34 nM; for `O=C(O)c1ccc(-c2ccccc2C(F)(F)F)o1`: 0.92 nM. Consider `CN(C)c1nc(-c2ccccc2)c2cnn(Cc3ccccc3)c2n1`, for which the PGE2 EC50 with compound amounted to 1.12 nM. `CC1(C)Cc2c(C#N)c(N3CCCC3)nc(-c3ccco3)c2CO1`: the PGE2 EC50 with compound amounted to 2.33 nM. Same read-out and setting: the same measure for `CC(C)c1ccc(/C=N/Nc2cc(N3CCOCC3)nc(N3CCOCC3)n2)cc1`: 0.98 nM. Same read-out and setting: the same measure for `CC(Sc1ccc2ccccc2n1)C(=O)O` (stereo not given): 3.1 nM and 3.84 nM; for `CCn1c2ccc(F)cc2c2nc3ccccc3nc21`: 0.86 nM. On the same count and under the same terms, the same measure for `O=C1CCCc2ccccc2N1Cc1c(Cl)cccc1Cl`: 1.04 nM. With `CCCn1c2ccccc2c2nc3ccccc3nc21`, the result was active and the PGE2 EC50 with compound is 1.21 nM. In the case of `CC(C)(C)C1CCC(OC(=O)c2ccncc2)CC1` (stereo not given), the result was active and the PGE2 EC50 with compound stood at 1.16 nM. Take `COC(=O)c1ccccc1NC(=O)C(C)Oc1ccccc1` (stereo not given): the PGE2 EC50 with compound is 0.9 nM. Same read-out and setting: the same measure for `CCC(C)(C)n1nnnc1C(c1ccncc1)N1CCC(Cc2ccccc2)CC1` (stereo not given): 1.85 nM. Still for that read-out and setting: the same measure for `C[C@H](CN(C)C)C(=O)c1ccccc1C(=O)O`: 1.41 nM; for `C/C(=N\N=C(c1ccccc1)c1ccccc1)c1ccco1`: 0.97 nM.

With `O=c1[nH]c(CSc2ncc(-c3ccc(F)cc3)n2Cc2ccco2)nc2ccccc12`, the PGE2 EC50 with compound came to 0.71 nM. On to `O=c1c2ccccc2c2ccccc2c(=O)n1Cc1ccco1`, for which the PGE2 EC50 with compound is 1.09 nM.

Regarding `c1ccc(Oc2nc3ccccc3n3cccc23)cc1`, the PGE2 EC50 with compound came out at 0.86 nM. Still for that read-out and setting: the same measure for `Cc1ccc(Nc2cc(C)nc3c(C)ccc([N+](=O)[O-])c23)cc1`: 0.73 nM; for `Cc1cccc(Oc2sc(C(=O)c3ccccc3)c(N)c2C#N)c1`: 1.51 nM; for `Cc1cc(SCC(=O)NCCC2=CCCCC2)nc2ccccc12`: 2.66 nM. Same read-out and setting: the same measure for `COc1ccc(-n2c(COc3cccc4ccccc34)nnc2SCC(=O)NCc2ccco2)cc1`: 1.07 nM. For `CCOC(=O)N1CCC(=C2c3ccc(Cl)cc3CCc3cccnc32)CC1`, the PGE2 EC50 with compound was 0.95 nM. For the compound `CCc1ccccc1NC(=O)/C(=C/c1ccco1)c1ccccc1`, the PGE2 EC50 with compound was determined as 1.58 nM.

As to `CCOC(=O)C1=C(N)N2C(=O)C(C)SC2=C(C(=O)OC)C1c1ccccc1OC` (stereo not given), the PGE2 EC50 with compound came to 0.51 nM. The same measure, in the same setting: the same measure for `COc1cc(CN2CCC(C(=O)N3CCN(c4ccccc4F)CC3)CC2)cc(OC)c1OC`: 0.75 nM; for `CCC(C)(C(=O)NC1CCCCC1)N(C(=O)C1CCC(=O)N1)c1ccccc1` (stereo not given): 1.17 nM; for `CCCn1c(-c2cccs2)nc2c1c(=O)[nH]c(=O)n2Cc1ccccc1`: 2.78 nM. On the same count and under the same terms, the same measure for `Cc1cccc(Cn2c(=O)n(Cc3ccco3)c(=O)c3ccccc32)c1`: 1.13 nM. The same measure, in the same setting: the same measure for `O=C(c1cc2sccc2n1Cc1ccccc1)N1CCCc2ccccc21`: 1.3 nM; for `c1ccc(-c2nn3c(C4CCCCC4)nnc3s2)cc1`: 1.07 nM; for `COc1ccccc1N(C(=O)NCc1ccccc1)C1=NCC(C)S1` (stereo not given): 1.58 nM. For `COc1ccc(C(=O)NCC(=O)n2nc(C)cc2C)cc1OC`, the PGE2 EC50 with compound worked out at 1.6 nM.

For `O=C(CSc1nnc(-c2cc3ccccc3cc2O)n1Cc1ccco1)c1ccc(F)cc1`, the PGE2 EC50 with compound turned out to be 1.35 nM. Same read-out and setting: the same measure for `Cc1ccc(N/C(C(Cl)=C(Cl)Cl)=C(/Cl)[N+](=O)[O-])c(C)c1`: 1.32 nM. For `Cc1ccccc1Cn1c(-c2cncs2)nc2ccccc21`, the PGE2 EC50 with compound came out at 2.57 nM.

Turning to `C[C@]12CCC3C(CC[C@H]4C[C@@H](Cl)CC[C@]34C)C1CCC2=O` (stereo not given in full), the PGE2 EC50 with compound amounted to 0.99 nM. The same measure, in the same setting: the same measure for `O=c1c2c(n3nnnc3n1-c1ccccc1)-c1ccccc1CC21CCCC1`: 1.01 nM; for `O=c1n(Cc2ccccc2F)c2ccccc2n1Cc1ccccc1F`: 1.01 nM. As for `O=C(c1ccccc1)N1N=C(c2ccccc2)CC1c1ccccc1O` (stereo not given), the PGE2 EC50 with compound was determined as 1.14 nM. Same read-out and setting: the same measure for `Cc1cccc(-n2c(CCc3ccccc3)nnc2SCC(=O)c2ccccc2)c1`: 1.16 nM.

Consider `CC1=CC2C(C(C)C)CCC(C)(O)C2CC1` (stereo not given), for which the PGE2 EC50 with compound is 0.68 nM. Same read-out and setting: the same measure for `O=C(c1cc(-c2ccccn2)nc2ccc(Br)cc12)N1CCc2ccccc2C1`: 1.06 nM; for `CN(C)c1ncc(S(=O)(=O)c2ccccc2)c(-c2ccccc2Cl)n1`: 0.72 nM. Still for that read-out and setting: the same measure for `Cc1sc2ncnc(N(C)Cc3cccs3)c2c1C`: 2.57 nM; for `Cc1ccc(N=Nc2c(N)[nH]n3c(=O)c4c(nc23)CCCC4)cc1`: 0.81 nM; for `CCOC(=O)c1c(C2COc3ccccc3O2)csc1N` (stereo not given): 1.39 nM. The same measure, in the same setting: the same measure for `CCOc1cccc(CNc2ccc(O)cc2)c1OCc1ccccc1Cl`: 0.62 nM; for `COc1ccc(CSC2=C(C#N)C(=O)NC3(CCCCC3)S2)cc1`: 1.3 nM. In the case of `CCc1cc2cc3c(cc2nc1SCC(=O)OC(C)C)OCO3`, the PGE2 EC50 with compound stood at 0.7 nM. The same measure, in the same setting: the same measure for `Cc1cccc(-c2nc(=S)c3c(n2Cc2ccco2)CCCC3)c1`: 0.88 nM.

On to `CCOC(=O)c1cnc(SC)nc1Sc1ccccc1Cl`, for which the outcome was active and the PGE2 EC50 with compound was 1.07 nM.

As to `CC(C)c1ccc2c(c1)CCC1C(C)(C(N)=O)CCCC21C` (stereo not given), the PGE2 EC50 with compound came out at 0.9 nM. With `COc1ccc(OC(=O)c2cccc([N+](=O)[O-])c2)c(C(=O)/C=C/c2cccs2)c1`, the PGE2 EC50 with compound was 2.52 nM. Take `CCCSc1ncnc2c1oc1ccccc12`: the result was active and the PGE2 EC50 with compound stood at 0.69 nM. Turning to `CCN(Cc1ccccc1)C(c1cc2cc(C)cc(C)c2[nH]c1=O)c1nnnn1CCOC` (stereo not given), the PGE2 EC50 with compound is 1.28 nM. Turning to `Cc1cccc(Cn2c(Cc3ccccc3)nc3ccccc32)c1`, the PGE2 EC50 with compound was 0.71 nM.

For the compound `CNc1oc(-c2ccc(Cl)cc2)nc1P(=O)(c1ccccc1)c1ccccc1`, the PGE2 EC50 with compound was 0.76 nM. Still for that read-out and setting: the same measure for `C[N+]1(C)CCOC(O)(c2ccc(-c3ccc(C4(O)C[N+](C)(C)CCO4)cc3)cc2)C1` (stereo not given): 0.14 nM; for `COc1ccc(C)cc1-n1c(=O)c2ccccc2c2ccccc2c1=O`: 0.71 nM.
